From publication PMC8733726, “Dioctanoyl Ultrashort Tetrabasic β-Peptides Sensitize Multidrug-Resistant Gram-Negative Bacteria to Novobiocin and Rifampicin” (Frontiers in Microbiology, 2021)
In brackets after ≈: the same amount, converted by molar mass. Where two headings read alike, the source gives them in different places.

Experiments:
[1] = system: P. aeruginosa PAO1; assay type: cell-based, Pseudomonas aeruginosa; details: PAO1, 18 h
Description: (§1) The in vitro antibacterial activities of dUSTBβPs were evaluated using microbroth dilution susceptibility test, in accordance with the Clinical and Laboratory Standards Institute (CLSI) guidelines ([Clinical and Laboratory Standards Institute, 2019]). Overnight-grown bacterial culture diluted in saline to 0.5 McFarland turbidity was successively diluted 1:50 in Mueller-Hinton broth (MHB) to achieve a final concentration of 5 × 10^5 colony forming units (CFU)/mL for inoculation. The agents were serially diluted 2-fold in MHB on a 96-well plate; mixed with bacterial inoculum of equal volumes, and incubated at 37°C for 18 h. Antibacterial activity was determined by the minimum inhibitory concentration (MIC), which is the lowest concentration of agent required for inhibition of visible bacterial growth in the form of turbidity. Confirmation of turbidity was done using an EMax Plus microplate reader (Molecular Devices, United States) at a wavelength of 590 nm. Wells comprising MHB alone or MHB inoculated with bacteria were used as negative or positive controls, respectively.

[2] = in vitro; assay type: cell-based; details: human
Description: The degree of hemolysis induced by dUSTBβPs was determined by the amount of hemoglobin released from human erythrocytes upon incubation. Fresh human blood supplied by a commercial vendor was obtained from normal healthy volunteers following informed consent. The agent of interest was serially diluted in vehicle consisting of phosphate-buffered saline (PBS), saline, 5% glucose, or equivalents. The samples were incubated with gentle mixing at 37°C for 45 min and were subsequently centrifuged. The supernatant (plasma layer) was removed and centrifuged once more to completely pellet the cells. The plasma layer was diluted with Drabkin’s reagent and analyzed at a wavelength of 540 nm. Experiments were conducted in triplicates, and a calibration curve prepared by diluting blood (after addition of vehicle) was used to quantitate heme release. The vehicle or Triton X-100 were used as negative or positive controls, respectively.

[3] = system: A. baumannii ATCC 17978; assay type: cell-based, Acinetobacter baumannii; details: ATCC 17978, 18 h
Description: as §1

[4] = system: E. coli ATCC 25922; assay type: cell-based, Escherichia coli; details: ATCC 25922, 18 h
Description: as §1

[5] = system: MDR clinical isolates of A. baumannii; assay type: cell-based, Acinetobacter baumannii; details: MDR clinical isolates of, 18 h
Description: (§2) The adjuvant activities of dUSTBβPs were evaluated using checkerboard assay as previously described ([Berry et al., 2019]). Overnight-grown bacterial culture diluted in saline to 0.5 McFarland turbidity was successively diluted 1:50 in MHB to achieve a final concentration of 5 × 10^5 CFU/mL for inoculation. The antibiotic and adjuvant were serially diluted 2-fold along the x-axis and y-axis, respectively, resulting in varying concentrations of both agents in each well. Subsequently, the 96-well plate was incubated with equal volumes of bacterial inoculum at 37°C for 18 h. Confirmation of turbidity was done using an EMax Plus microplate reader (Molecular Devices, United States) at a wavelength of 590 nm. Wells comprising MHB alone or in the presence of bacterial cells were used as negative or positive controls, respectively. Fractional inhibitory concentration index (FICI) is determined by adding the FICs of both antibiotic and adjuvant. The FIC of the antibiotic is calculated by dividing the MIC of the antibiotic in the presence of the adjuvant by the MIC of the antibiotic alone. Similarly, the FIC of the adjuvant is calculated by dividing the MIC of the adjuvant in the presence of the antibiotic by the MIC of the adjuvant alone. FICI ≤ 0.5, 0.5 < x ≤ 4, and >4 were deemed synergistic, additive, and antagonistic, respectively ([Meletiadis et al., 2010]).

[6] = in vitro; details: human, plasma
Description: Stability of dUSTBβP 3 was evaluated in human plasma. […] The supernatant was analyzed by HPLC-tandem mass spectrometry using selected reaction monitoring. The % compound remaining was determined by comparing peak areas at different time points to time zero. Assuming first-order kinetics, the half-life was extrapolated from the slope of the initial linear range of the logarithmic curve of compound remaining over time. Experiments were performed in duplicates, and the reference compounds include propantheline and propoxycaine.

[7] = system: wild-type P. aeruginosa PAO1; assay: microbe, parasite or virus in culture; assay type: cell-based, Pseudomonas aeruginosa; details: PAO1; for MICcombo: antibiotic with dUSTBβP 3 at 8 μg/mL; for MIC: Pseudomonas aeruginosa, 18 h, antibiotic alone (Supplementary Table 7), read-out: MICantibiotic
Description: as §2, with “Overnight-grown” for “The adjuvant activities of dUSTBβPs were evaluated using checkerboard assay as previously described ([Berry et al., 2019]). Overnight-grown”, “Subsequently, the 96-well plate was incubated with equal volumes of bacterial inoculum at 37°C for 18 h.” left out, “alone.” for “alone. FICI ≤ 0.5, 0.5 < x ≤ 4, and >4 were deemed synergistic, additive, and antagonistic, respectively ([Meletiadis et al., 2010]).”

[8] = system: wild-type E. coli ATCC 25922; assay: microbe, parasite or virus in culture; assay type: cell-based, Escherichia coli; details: ATCC 25922; for MICcombo: antibiotic with dUSTBβP 3 at 8 μg/mL; for MIC: Escherichia coli, ATCC25922, 18 h, antibiotic alone (Supplementary Table 7), read-out: MICantibiotic
Description: as §2

[9] = system: MDR A. baumannii clinical isolates; assay: Resistance phenotype (MICs of antibiotics) of MDR clinical isolates; assay type: cell-based, Acinetobacter baumannii; details: Acinetobacter baumannii, read-out: MIC
[10] = system: wild-type A. baumannii ATCC 17978; assay: Checkerboard assay; assay type: cell-based, Acinetobacter baumannii; details: ATCC 17978; for MICcombo: antibiotic with dUSTBβP 3 at 8 μg/mL; for MIC: Acinetobacter baumannii, ATCC17978, 18 h, antibiotic alone (Supplementary Table 7), read-out: MICantibiotic
Description: as §2, with “Overnight-grown” for “The adjuvant activities of dUSTBβPs were evaluated using checkerboard assay as previously described ([Berry et al., 2019]). Overnight-grown”, “Subsequently, the 96-well plate was incubated with equal volumes of bacterial inoculum at 37°C for 18 h.” left out, “alone.” for “alone. FICI ≤ 0.5, 0.5 < x ≤ 4, and >4 were deemed synergistic, additive, and antagonistic, respectively ([Meletiadis et al., 2010]).”

[11] = system: MDR E. cloacae clinical isolates; assay: Resistance phenotype (MICs of antibiotics) of MDR clinical isolates; assay type: cell-based, Enterobacter cloacae; details: Enterobacter cloacae, read-out: MIC
[12] = system: MDR E. coli clinical isolates; assay: as above; assay type: cell-based, Escherichia coli; details: Escherichia coli, read-out: MIC
[13] = system: MDR K. pneumoniae clinical isolates; assay: as above; assay type: cell-based, Klebsiella pneumoniae; details: Klebsiella pneumoniae, read-out: MIC
[14] = system: MDR P. aeruginosa clinical isolates; assay: as above; assay type: cell-based, Pseudomonas aeruginosa; details: Pseudomonas aeruginosa

Row | Compound | MIC [1] [µg/mL] | hemolysis at 45 min, 1.5625 µM [2] [%] | hemolysis at 45 min, 3.125 µM [2] [%] | hemolysis at 45 min, 6.25 µM [2] [%] | hemolysis at 45 min, 12.5 µM [2] [%] | hemolysis at 45 min, 25 µM [2] [%] | hemolysis at 45 min, 50 µM [2] [%] | hemolysis at 45 min, 100 µM [2] [%] | hemolysis at 45 min, 200 µM [2] [%] | MIC [3] [µg/mL] | MIC [4] [µg/mL] | MICcombo [7] [µg/mL] | MIC [7] [µg/mL] | MICcombo [8] [µg/mL] | MIC [8] [µg/mL] | MIC ([9]; LAC-4) [µg/mL] | MICcombo [10] [µg/mL] | MIC [10] [µg/mL] | MIC [11]; 117029 [µg/mL] | MIC ([12]; 94393 (mcr-1 +)) [µg/mL] | also measured
1 | CCCCCCCC(=O)NC(CCCN)CC(=O)NCCCN(CCCNC(=O)CC(CCCN)NC(=O)CCCCCCC)CC(=O)NC(CCCN)CC(N)=O (stereo not drawn) [dUSTBβP 1] | >128 | 3.11 ± 0.07 | 3.12 ± 0.09 | 3.13 | 3.16 ± 0.04 | 3.12 ± 0.05 | 3.17 ± 0.06 | 3.35 ± 0.17 | 2.26 ± 0.19 | >128 | >128 | – | – | – | – | – | – | – | – | – | –
2 | CCCCCCCC(=O)N[C@@H](CCCNC(=N)N)C(=O)NCCCN(CCCNC(=O)[C@H](CCCNC(=N)N)NC(=O)CCCCCCC)CC(=O)N[C@@H](CCCNC(=N)N)C(N)=O [di(C8-Arg)-Nbap-Arg-NH2] | – | – | – | – | – | – | – | – | – | – | – | – | – | – | – | – | – | – | – | – | MIC of compound alone [5]: 16 µg/mL; remaining at 2 h, 1 μM [6]: 39.5 ± 7.4%
3 | CCCCCCCC(=O)NC(CCCCN)CC(=O)NCCCN(CCCNC(=O)CC(CCCCN)NC(=O)CCCCCCC)CC(=O)NC(CCCCN)CC(N)=O (stereo not drawn) [dUSTBβP 2] | >128 | 3.33 ± 0.12 | 3.28 ± 0.21 | 3.23 ± 0.11 | 3.22 ± 0.2 | 3.29 ± 0.14 | 3.24 ± 0.15 | 3.26 ± 0.1 | 3.21 ± 0.13 | >128 | >128 | – | – | – | – | – | – | – | – | – | –
4 | O=C(N[C@H](CO)[C@H](O)c1ccc([N+](=O)[O-])cc1)C(Cl)Cl [Chloramphenicol] | – | – | – | – | – | – | – | – | – | – | – | 2 | 32 (≈ 99 µM) | 1 | 2 | 32 (≈ 99 µM) | 64 | 128 | 8 (≈ 24.8 µM) | 4 (≈ 12.4 µM) | MIC [9]; 110193: 128 µg/mL (≈ 396 µM); MIC ([9]; AB027): 128 µg/mL (≈ 396 µM); MIC ([9]; AB031): 128 µg/mL (≈ 396 µM); MIC ([12]; 94474 (mcr-1 +)): 4 µg/mL (≈ 12.4 µM); MIC [12]; 107115: 512 µg/mL (≈ 1580 µM); MIC [13]; 113250: 4 µg/mL (≈ 12.4 µM); MIC [13]; 113254: 2 µg/mL (≈ 6.19 µM); MIC [13]; 116381: > 512 µg/mL; MIC ([14]; 259-96196): 1020 µg/mL (≈ 3170 µM); MIC ([14]; 262-101856, read-out: MIC): 2050 µg/mL (≈ 6340 µM); MIC ([14]; 264-104354, read-out: MIC): 4100 µg/mL (≈ 12700 µM); MIC ([14]; 91433, read-out: MIC): 8 µg/mL (≈ 24.8 µM)
5 | C[C@H]1c2cccc(O)c2C(=O)C2=C(O)[C@]3(O)C(=O)C(C(N)=O)=C(O)[C@@H](N(C)C)[C@@H]3[C@@H](O)[C@@H]21 [Doxycycline] | – | – | – | – | – | – | – | – | – | – | – | 0.5 | 8 (≈ 18 µM) | 0.25 | 1 | < 4 | 0.25 | 0.25 | > 32 | 4 (≈ 9 µM) | MIC [11]; 118564: 4 µg/mL (≈ 9 µM); MIC [11]; 121187: > 32 µg/mL; MIC ([12]; 94474 (mcr-1 +)): > 32 µg/mL; MIC [12]; 107115: > 32 µg/mL; MIC [13]; 113250: 2 µg/mL (≈ 4.5 µM); MIC [13]; 113254: 128 µg/mL (≈ 288 µM); MIC [13]; 116381: 1 µg/mL (≈ 2.25 µM); MIC ([14]; 259-96196, read-out: MIC): 32 µg/mL (≈ 72 µM); MIC ([14]; 262-101856, read-out: MIC): 1020 µg/mL (≈ 2300 µM); MIC ([14]; 264-104354, read-out: MIC): 64 µg/mL (≈ 144 µM); MIC ([14]; 91433, read-out: MIC): 32 µg/mL (≈ 72 µM); MIC ([14]; 114228, read-out: MIC): 16 µg/mL (≈ 36 µM)
